Source: patent publication US9688651B2, “Geranyl geranyl acetone analogs and uses thereof” (NYKEN Holding B.V., priority 2012, dated 2017)
“Also recorded” adds a separate entry of the source.

How the values were obtained:
HSP70 [1] = assay: HSP70 protein boosting in HL-1 cardiomyocytes after mild heat shock (Western blot); assay type: cell-based, mouse; design: key to HSP boosting HL-1 cardiomyocytes Protein HSP70: 0 = no induction HSP levels; + = 2-10-fold induction; ++ = 10-30-fold induction; +++ = > 30-fold induction; conditions: mild heat shock 44°C 10 min, then compound 10 μM for 6 hours; Western blot
Experimental: HL-1 atrial myocytes, a cell line derived from adult mouse atria were obtained from Dr. William Claycomb (Louisiana State University, New Orleans, La., USA). The myocytes were maintained in Complete Claycomb Medium (JRH, UK) supplemented with 100 μM norepinephrine stock (consisting of 10 mM norepinephrine (Sigma, The Netherlands) dissolved in 0.3 mM L-ascorbic acid (Sigma)), 4 mM L-glutamine (Gibco, The Netherlands) and 10% FBS (Sigma). The myocytes were cultured in flasks coated with 0.02% gelatin (Sigma), in a 5% CO2 atmosphere at 37° C.
HL-1 cardiomyocytes were subjected to a mild heat shock of 44° C. for 10 minutes. After a recovery of 10 minutes (37 degrees 5% CO2), compounds were added in a final concentration of 10 μM (dissolved in DMSO, final concentration 0.1%). To control myocytes, 0.1% DMSO was added. After six hours the cells were lysed in RIPA buffer and used for Western blotting as described previously.^3, 10
(§1) Western-blot analysis was performed as described previously^3, 10. Equal amount of protein in SDS-PAGE sample buffer was sonicated before separation on 10% PAA-SDS gels. After transfer to nitrocellulose membranes (Stratagene, The Netherlands), membranes were incubated with primary antibodies against HSP25 (Stressgen, The Netherlands, SPA-801, 1:1000), HSP27 (Stressgen, SPA-800, 1:1000), HSP70 (Stressgen, SPA-810, 1:1000), GAPDH (Affinity Reagents, The Netherlands) or PARP (Santa Cruz, The Netherlands, sc-7150, 1:500). Horseradish peroxidase-conjugated anti-mouse or anti-rabbit (Santa-Cruz Biotechnology, The Netherlands) was used as secondary antibody. Signals were detected by the ECL-detection method (Amersham, The Netherlands) and quantified by densitometry using GeneTools software from Syngene (The Netherlands).
Compounds were also screened for HSP70 boosting effects. Hereto, HL-1 cardiomyocytes were first subjected to a mild heat shock which activates the Heat Shock Factor. After the mild heat shock, compound (10 μM) was added to the medium of HL-1 cardiomyocytes for 6 hours, followed by determination of the HSP70 amount.

[2] = test system: MCF-7 breast cancer cells; assay: MCF-7 cell death, ratio death/living cells (trypan blue); assay type: cell-based, human; design: key to Cell Death MCF-7 cancer cells Death/living 100 μM: 0 = no dead cells; + = P < 0.05; ++ = P < 0.01; +++ = P < 0.001; conditions: for Cell Death MCF-7 cancer cells Death/living 100 μM: 16-20 hours, trypan blue; for cell death in MCF-7: 10 μM, 16 hours
Experimental: MCF-7 breast cancer cells were cultured in DMEM supplemented with 10% FCS. […] Ratio death and living cells was determined by using trypan blue staining of death cells. The cell pellets were lysed in RIPA buffer and used for Western blot analysis.
Since we observed that some compounds aggravate tachypacing-induced contractile dysfunction, we next investigated if these compounds can induce programmed cell death in a human breast cancer cell-line MCF-7. […] In total 28 compounds were tested for cell death. […] GGA was used as a control as well as non-treated MCF-7 cells. […] The findings indicate that GGA-like compounds which aggravate heart failure can induce programmed cell death in MCF-7 breast cancer cell-line.

HSP27 = HSP27 Western blot in MCF-7 cells; assay type: cell-based, human; design: key: + = P < 0.05; ++ = P < 0.01; +++ = P < 0.001; conditions: MCF-7 lysate, 16-20 hours
Experimental: (§2) MCF-7 breast cancer cells were cultured in DMEM supplemented with 10% FCS. Test compounds were added to the medium in a final concentration of […] for 16-20 hours. Ratio death and living cells was determined by using trypan blue staining of death cells. The cell pellets were lysed in RIPA buffer and used for Western blot analysis.
as §1

HSP70 [3] = assay: HSP70 Western blot in MCF-7 cells; assay type: cell-based, human; design: key: + = P < 0.05; ++ = P < 0.01; +++ = P < 0.001; conditions: MCF-7 lysate, 16-20 hours
Experimental: as §2, §1

PARP = PARP cleavage in MCF-7 cells (Western blot); assay type: cell-based, human; design: key to Cell Death MCF-7 cancer cells PARP: 0 = no dead cells; + = P < 0.05; ++ = P < 0.01; +++ = P < 0.001; conditions: for Cell Death MCF-7 cancer cells PARP: MCF-7 lysate, Western blot, 16-20 hours; for PARP cleavage, indicative of pro-apoptotic caspase activation: MCF-7, 10 μM, 16 hours
Experimental: as §2, §1
Since we observed that some compounds aggravate tachypacing-induced contractile dysfunction, we next investigated if these compounds can induce programmed cell death in a human breast cancer cell-line MCF-7. Hereto, MCF-7 cells were incubated for 16 hours with 10 μM of a test compound after which the number of death and living cells was determined. In total 28 compounds were tested for cell death. […] GGA was used as a control as well as non-treated MCF-7 cells. […] The findings indicate that GGA-like compounds which aggravate heart failure can induce programmed cell death in MCF-7 breast cancer cell-line.

With `CCC(=O)N(C/C=C(\C)CCC=C(C)C)C(=O)CC` [Compound 103] the “HSP boosting HL-1 cardiomyocytes Protein HSP70” value (HSP70 [1]) was 0, the “Cell Death MCF-7 cancer cells Death/living 100 μM” value [2] was 0 and the “Cell Death MCF-7 cancer cells HSP 27” value (HSP27) was 0. The “Cell Death MCF-7 cancer cells HSP 70” value (HSP70 [3]) was 0 and the “Cell Death MCF-7 cancer cells PARP” value (PARP) was 0.
`CC(C)=CCC/C(C)=C/CCc1cc(C)nn1-c1ccc(F)cc1` [Compound 39] was tested, and the “HSP boosting HL-1 cardiomyocytes Protein HSP70” value (HSP70 [1]) was 0, the “Cell Death MCF-7 cancer cells Death/living 100 μM” value [2] was 0 and the “Cell Death MCF-7 cancer cells HSP 27” value (HSP27) was “+ (+ = P < 0.05)”. The “Cell Death MCF-7 cancer cells HSP 70” value (HSP70 [3]) was 0 and the “Cell Death MCF-7 cancer cells PARP” value (PARP) was 0.
For `CC(C)=CCC/C(C)=C/CCc1cc(C)n(CCO)n1` [Compound 35], the “HSP boosting HL-1 cardiomyocytes Protein HSP70” value (HSP70 [1]) was 0.
For `CC(C)=CCC/C(C)=C/CCc1cc(C)n(C)n1` [Compound 33], the “HSP boosting HL-1 cardiomyocytes Protein HSP70” value (HSP70 [1]) was “+ (+ = 2-10-fold induction)”.
In the case of `CCCC(=O)C(CC)C(=O)N(C/C=C(\C)CCC=C(C)C)C(=O)CCC` (stereo not shown) [Compound 128], the “HSP boosting HL-1 cardiomyocytes Protein HSP70” value (HSP70 [1]) is reported as 0.
With `CC(C)=CCC/C(C)=C/CNS(=O)(=O)c1ccc(C)cc1` [Compound 53] the “HSP boosting HL-1 cardiomyocytes Protein HSP70” value (HSP70 [1]) was “+ (+ = 2-10-fold induction)”.
With `CCOC(=O)CC(C(=O)CC/C=C(\C)CCC=C(C)C)C(=O)OCC` (stereo not shown) [Compound 89] the “HSP boosting HL-1 cardiomyocytes Protein HSP70” value (HSP70 [1]) was “+ (+ = 2-10-fold induction)”, the “Cell Death MCF-7 cancer cells Death/living 100 μM” value [2] was 0 and the “Cell Death MCF-7 cancer cells HSP 27” value (HSP27) was 0. For the same molecule, the “Cell Death MCF-7 cancer cells HSP 70” value (HSP70 [3]) was 0 and the “Cell Death MCF-7 cancer cells PARP” value (PARP) was 0.
With `CCOC(=O)C(C/C=C(\C)CCC=C(C)C)C(C)=O` (stereo not shown) [Compound 81] the “HSP boosting HL-1 cardiomyocytes Protein HSP70” value (HSP70 [1]) was 0.
`CCOC(=O)C(CC(=O)O)C(=O)CC/C=C(\C)CCC=C(C)C` (stereo not shown) [Compound 78] was tested, and the “HSP boosting HL-1 cardiomyocytes Protein HSP70” value (HSP70 [1]) was 0, the “Cell Death MCF-7 cancer cells Death/living 100 μM” value [2] was 0 and the “Cell Death MCF-7 cancer cells HSP 27” value (HSP27) was “++ (++ = P < 0.01)”. The “Cell Death MCF-7 cancer cells HSP 70” value (HSP70 [3]) was 0, the “PARP cleavage, indicative of pro-apoptotic caspase activation” value (“PARP cleavage, indicative” for short) (PARP) was “induced PARP cleavage” and the “Cell Death MCF-7 cancer cells PARP” value (PARP) was “+ (+ = P < 0.05)”.
For `CCCCCC(C(=O)CC/C=C(\C)CCC=C(C)C)C(=O)OCC` (stereo not shown) [Compound 24], the “HSP boosting HL-1 cardiomyocytes Protein HSP70” value (HSP70 [1]) was 0.
With `CCOC(=O)CC(=O)CC/C=C(\C)CCC=C(C)C` [Compound 21, (E)-Ethyl 7,11-dimethyl-3-oxododeca-6,10-dienoate] the “HSP boosting HL-1 cardiomyocytes Protein HSP70” value (HSP70 [1]) was 0.
With `CC(=O)NC/C=C(\C)CCC=C(C)C` [Compound 43] the “HSP boosting HL-1 cardiomyocytes Protein HSP70” value (HSP70 [1]) was 0.
`CC(C)=CCC/C(C)=C/CNC(=O)Nc1cccc(F)c1` [Compound 45] was tested, and the “HSP boosting HL-1 cardiomyocytes Protein HSP70” value (HSP70 [1]) was 0, the “cell death in MCF-7” value [2] was “significant increase in cell death; also recorded: induce cell death” and the “Cell Death MCF-7 cancer cells Death/living 100 μM” value [2] was “++ (++ = P < 0.01)”. The “Cell Death MCF-7 cancer cells HSP 27” value (HSP27) was 0, the “PARP cleavage, indicative” value (PARP) was “induced PARP cleavage” and the “Cell Death MCF-7 cancer cells PARP” value (PARP) was “++ (++ = P < 0.01)”.
For `CC(C)=CCC/C(C)=C/CNC(=O)CS(C)(=O)=O` [Compound 56], the “HSP boosting HL-1 cardiomyocytes Protein HSP70” value (HSP70 [1]) was 0, the “Cell Death MCF-7 cancer cells Death/living 100 μM” value [2] was 0 and the “Cell Death MCF-7 cancer cells HSP 27” value (HSP27) was 0. For the same molecule, the “Cell Death MCF-7 cancer cells HSP 70” value (HSP70 [3]) was 0 and the “Cell Death MCF-7 cancer cells PARP” value (PARP) was 0.
In the case of `CC(C)=CCC/C(C)=C/CNC(=O)c1ccccc1O` [Compound 101], the “HSP boosting HL-1 cardiomyocytes Protein HSP70” value (HSP70 [1]) is reported as 0, the “cell death in MCF-7” value [2] is reported as “significant increase in cell death; also recorded: induce cell death” and the “Cell Death MCF-7 cancer cells Death/living 100 μM” value [2] is reported as “++ (++ = P < 0.01)”. The “Cell Death MCF-7 cancer cells HSP 27” value (HSP27) was 0, the “PARP cleavage, indicative” value (PARP) was “induced PARP cleavage” and the “Cell Death MCF-7 cancer cells PARP” value (PARP) was “++ (++ = P < 0.01)”.
For `CCOC(=O)C(=O)NC/C=C(\C)CCC=C(C)C` [Compound 97], the “HSP boosting HL-1 cardiomyocytes Protein HSP70” value (HSP70 [1]) was 0.
`CCOC(=O)C(C)C(=O)CC/C=C(\C)CCC=C(C)C` (stereo not shown) [Compound 22] was tested, and the “HSP boosting HL-1 cardiomyocytes Protein HSP70” value (HSP70 [1]) was 0.
In the case of `CCOC(=O)C(C(=O)CC/C=C(\C)CCC=C(C)C)C(C)C(=O)O` (stereo not shown) [Compound 82], the “HSP boosting HL-1 cardiomyocytes Protein HSP70” value (HSP70 [1]) is reported as 0.
`CC(C)=CCC/C(C)=C/Cc1c(O)c2ccccc2oc1=O` [Compound 66] was tested, and the “HSP boosting HL-1 cardiomyocytes Protein HSP70” value (HSP70 [1]) was 0, the “Cell Death MCF-7 cancer cells Death/living 100 μM” value [2] was 0 and the “Cell Death MCF-7 cancer cells HSP 27” value (HSP27) was “+ (+ = P < 0.05)”. For the same molecule, the “Cell Death MCF-7 cancer cells HSP 70” value (HSP70 [3]) was “++ (++ = P < 0.01)”, the “PARP cleavage, indicative” value (PARP) was “induced PARP cleavage” and the “Cell Death MCF-7 cancer cells PARP” value (PARP) was “+ (+ = P < 0.05)”.
`CCCC(C(=O)CC/C=C(\C)CCC=C(C)C)C(=O)OCC` (stereo not shown) [Compound 70] was tested, and the “HSP boosting HL-1 cardiomyocytes Protein HSP70” value (HSP70 [1]) was 0, the “Cell Death MCF-7 cancer cells Death/living 100 μM” value [2] was 0 and the “Cell Death MCF-7 cancer cells HSP 27” value (HSP27) was “+++ (+++ = P < 0.001)”. The “Cell Death MCF-7 cancer cells HSP 70” value (HSP70 [3]) was “++ (++ = P < 0.01)” and the “Cell Death MCF-7 cancer cells PARP” value (PARP) was 0.
For `CCCC(=O)NC/C=C(\C)CCC=C(C)C` [Compound 91], the “HSP boosting HL-1 cardiomyocytes Protein HSP70” value (HSP70 [1]) was “+ (+ = 2-10-fold induction)”.
In the case of `CC(C)=CCC/C(C)=C/CCc1cc(C)n(CCC#N)n1` [Compound 34], the “HSP boosting HL-1 cardiomyocytes Protein HSP70” value (HSP70 [1]) is reported as 0.
In the case of `CCOC(=O)C(=Cc1ccccc1)C(=O)CCC=C(C)CCC=C(C)C` (mixture of isomers) [Compound 84], the “HSP boosting HL-1 cardiomyocytes Protein HSP70” value (HSP70 [1]) is reported as “+ (+ = 2-10-fold induction)”.
In the case of `CC(C)=CCC/C(C)=C/CCc1cc(O)nn1C` [Compound 64], the “HSP boosting HL-1 cardiomyocytes Protein HSP70” value (HSP70 [1]) is reported as 0.
In the case of `CCNC(=O)NC/C=C(\C)CCC=C(C)C` [Compound 44], the “HSP boosting HL-1 cardiomyocytes Protein HSP70” value (HSP70 [1]) is reported as 0.
With `CC(C)=CCC/C(C)=C/CCc1cc(C)nn1-c1ccccc1F` [Compound 40] the “HSP boosting HL-1 cardiomyocytes Protein HSP70” value (HSP70 [1]) was 0.
In the case of `CCCC(=O)N(C/C=C(\C)CCC=C(C)C)C(=O)CCC` [Compound 127], the “HSP boosting HL-1 cardiomyocytes Protein HSP70” value (HSP70 [1]) is reported as 0, the “Cell Death MCF-7 cancer cells Death/living 100 μM” value [2] is reported as 0 and the “Cell Death MCF-7 cancer cells HSP 70” value (HSP70 [3]) is reported as 0. For the same molecule, the “Cell Death MCF-7 cancer cells PARP” value (PARP) was 0.
